According to US11767316B2, “Non-fused thiophene derivatives and their uses” (ENYO PHARMA, priority 2018, dated 2023):

Tests used:
[1] = target: T1, CISD1 Gene Product (mitoNEET) (Homo sapiens, UniProt Q9NZ45); assay: Stability of Fe-S cluster binding of purified NEET protein (absorbance 458 nm), mitoNEET; format: biochemical
T1 sequence (Q9NZ45 33-108 limits assumed): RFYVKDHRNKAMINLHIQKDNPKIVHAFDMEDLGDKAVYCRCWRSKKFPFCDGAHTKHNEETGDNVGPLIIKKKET
Description: (§1) The modulator effect on the NEET proteins encoded by human CISD1, CISD2, and CISD3 genes by the compounds of the invention has been tested and is reported below. Particularly, the biochemical function of the NEET proteins is measured by the stability of Fe—S cluster binding of the purified NEET proteins.
(§2) The Fe—S cluster binding capacity of NEET proteins is known to be coordinated by four amino-acids in a stretch of 16 (three Cysteine and one Histidine). As the lability of the Fe—S cluster of NEET proteins is sensitive to the environment, cluster stability measurements are one of the measures of interactions of NEET proteins with small molecules and compounds. NEET protein/2Fe-2S cluster stability can be assessed by monitoring the decay in absorbance of its characteristic 458-nm peak (characteristic of the oxidized 2Fe-2S cluster) over time. Each NEET protein (mitoNEET, NAF-1 and Miner 2) was tested for its Fe—S binding in the absence or presence of a compound according to the invention (see table 3 below). […]
(§3) At pH 6, all the three NEET proteins (mitoNEET, NAF-1 and Miner 2) have a characteristic rate of loss of the bound Fe—S cluster that can be measured by the decrease of absorbance at wavelength 458 nm over time, using a spectrophotometer. […]
(§4) A reaction mix containing DMSO diluted in the Bis-Tris Buffer with or without a compound of the invention was prepared. […] The absorbance at wavelength 458 nm was taken at 5 minutes intervals at 37° C. with a spectrofluorimeter. […]
(§5) In addition to time monitoring, residual bound Fe—S cluster to NEET protein was measured at the final point of the spectrometry assay for each Test sample and compared to the Control sample data (in parenthesis table 3). This residual binding is measured by the differential percentage between the absorbance 458 nm at time zero and the absorbance 458 nm at the end of the experiment (i.e. respectively 500 or 180 minutes as described hereabove), showing the percentage of NEET protein still able to bind a Fe—S cluster. […]

[2] = target: T2, CISD3 Gene Product (Miner2) (Homo sapiens, UniProt P0C7P0); assay: Stability of Fe-S cluster binding of purified NEET protein (absorbance 458 nm), Miner2; format: biochemical
T2 sequence (P0C7P0 15-127): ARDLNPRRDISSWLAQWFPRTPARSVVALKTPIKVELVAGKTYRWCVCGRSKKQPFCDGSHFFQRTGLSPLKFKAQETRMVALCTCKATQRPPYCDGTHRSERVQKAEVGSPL
Description: as §1, §2, §3, §4, §5

SMILES: O=C(Nc1scc(C2CCc3ccccc3C2)c1C(=O)O)c1ccccc1 (stereo not drawn) [#16]
- Time (in minutes) to achieve 50% loss of bound cluster (Absorbance 458 nm) ([1]; mitoNEET 20 μM, compound 60 μM, pH 6, 37° C., vehicle control 80): 35 (80) minutes
- Residual cluster bound at end of experiment (Percentage Absorbance 458 nm at time zero) ([1]; mitoNEET, end of experiment 180 minutes, compound 60 μM, pH 6, vehicle control 16%): 0% (16%)
- Stabiliser or destabiliser of NEET protein/Fe-S cluster binding ([1]; mitoNEET, destabiliser = time to 50% cluster loss decreased by more than 25% vs control): destabilisers
- Residual cluster bound at end of experiment (Percentage Absorbance 458 nm at time zero) ([2]; CISD3 Gene Product, end of experiment 180 minutes, compound 60 μM, pH 6, vehicle control 11%): 11% (11%)
- Time (in minutes) to achieve 50% loss of bound cluster (Absorbance 458 nm) ([2]; Miner2 20 μM, compound 60 μM, pH 6, 37° C., vehicle control 60): 35 (60) minutes
- Stabiliser or destabiliser of NEET protein/Fe-S cluster binding ([2]; Miner2, destabiliser = time to 50% cluster loss decreased by more than 25% vs control): destabilisers
